Assays:
Type in all cases: in vivo, human
[1] = HPN-100-012 switch-over study, pharmacokinetics of HPN-100 and NaPBA in pediatric UCD patients; details: HPN-100-012 (N = 15), TID with meals, arithmetic mean
Protocol: HPN-100-012, an open-label, fixed sequence, switch-over study of the safety, PK and efficacy of HPN-100 compared to NaPBA in patients with UCDs, with a 12-month safety extension part. The switch-over part of the study and the 12-month safety extension are complete. The switch-over part was conducted at 7 U.S. centers and enrolled 15 pediatric UCD patients between 29 days and <6 year of age, all of whom completed the study. After review of all the safety data by the DSMB, 8 additional subjects were enrolled in the study after the switch-over phase was completed. The primary efficacy endpoint was the 24-hour AUC (area under the curve) for blood ammonia on Day 1 compared with Day 10.
(§1) The pharmacokinetics of the short term studies can be summarized as follows. Mean exposure levels of HPN-100 metabolites PBA, PAA, and PAGN after doses of HPN-100 and NaPBA with meals (TID) in pediatric (29 days to 17 years of age) UCD patients in HPN-100-005 and HPN-100-012 studies are summarized below. The mean exposure to PBA, the parent metabolite, and mean exposure to PAGN, the terminal metabolite, show no systematic variation across age groups, while PAA exposure tended to decrease with increasing age, a finding consistent with those from population PK modeling which indicate that the rate of clearance/metabolism of PAA varies directly with body size. While systemic metabolite exposure, assessed as peak plasma concentration (Cmax) or AUC, is generally similar for HPN-100 and NaPBA, the minimum concentration (Cmin-ss) was higher—and/or percent-fluctuation less—for plasma PAGN, a finding consistent with slower gastrointestinal absorption of PBA when administered orally as HPN-100.

[2] = HPN-100-005 pharmacokinetics of HPN-100 and NaPBA in pediatric UCD patients; details: HPN-100-005 (N = 11)
Description: as §1

[3] = test system: blood ammonia in pediatric patients with UCDs; test: HPN-100-012 open-label fixed sequence switch-over study, blood ammonia control
Description: HPN-100-012, an open-label, fixed sequence, switch-over study of the safety, PK and efficacy of HPN-100 compared to NaPBA in patients with UCDs, with a 12-month safety extension part. […] After review of all the safety data by the DSMB, 8 additional subjects were enrolled in the study after the switch-over phase was completed. The primary efficacy endpoint was the 24-hour AUC (area under the curve) for blood ammonia on Day 1 compared with Day 10.

[4] = pediatric UCD patients, TID with meals, arithmetic mean

With `O=C([O-])CCCc1ccccc1.[Na+]` [NaPBA, sodium phenylbutyrate] the “Plasma PAA % Fluctuation” value [1] was 1289%, the “Plasma PAA AUC0-24” value [1] was 1458 µg·h/mL and the “Plasma PAA CLss/F” value [1] was 94249 mL/min. For the same molecule, the “Plasma PAGN CLss/F” value [1] was 14360 mL/min, the “Plasma PBA CLss/F” value [1] was 112093 mL/min and the “Plasma PBA Cmin-ss” value [1] was 993 ng/mL. For the same molecule, the “Plasma PAA CLss/F” value [2, 4] was 34391 mL/min, the “Plasma PBA CLss/F” value [2, 4] was 145463 mL/min and the “Plasma PAA Cmin-ss” value ([2]; pediatric UCD patients, TID with meals, arithmetic mean (CV %)) was 674 ng/mL. For the same molecule, the “U-PAGN Ae0-12” value ([2]; urinary PAGN excreted 0-12 h, arithmetic mean) was 7098020 µg, the “U-PAGN Ae12-24” value ([2]; urinary PAGN excreted 12-24 h, arithmetic mean) was 5414406 µg and the “U-PAGN Ae” value ([2]; urinary PAGN excreted, arithmetic mean) was 12512426 µg. For the same molecule, the “Mean blood ammonia at the 12-hour time point” value ([3]; HPN-100 Day 10, NaPBA Day 1, highest value for both treatments) was 41.03 µmol/L and the “Mean blood ammonia at the 24-hour time point” value ([3]; NaPBA Day 1, lowest value on NaPBA) was 34.66 µmol/L.

Reference: patent publication US20170348269A1, “TREATMENT OF UREA CYCLE DISORDERS IN NEONATES AND INFANTS” (Horizon Therapeutics, LLC, priority 2016, published 2017)
